This is an account of results in patent publication US4962109A, “Insecticidally and acaricidally active pyrimidine esters and intermediates therefor” (Imperial Chemical Industries PLC, priority 1985, dated 1990).

Holding throughout (type): in vivo
For assay [1], the system named is Tetranychus urticae (spider mites - adult). Description: Contact test on spider mites - adult (TUa), French bean leaf, mortality. As to conditions: 72 h, 500 ppm, contact, 3 days, read-out: TUa grading of mortality. The gist of the method:
(§1)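 Product dissolved in acetone, diluted in water with 0.01% wetting agent to 500, 250 or 100 ppm; pests and/or host medium (plant or foodstuff) treated. Mortality or knockdown assessed 1–3 days later, graded A (80–100%), B (50–79%) or C (<50%).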

Assay [2] deals with Nephotettix cincticeps (green leaf hopper - nymphs). Briefly: Contact test on green leaf hopper nymphs (NC), Rice plant, mortality. As to conditions: 500 ppm, contact, read-out: NC grading of mortality. Summed up: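 Product dissolved in acetone, diluted in water with 0.01% wetting agent to 500, 250 or 100 ppm; nymphs and/or host rice plants treated. Mortality or knockdown assessed 1–3 days later, graded A (80-100%), B (50-79%), C (<50%).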

Assay [3] has as its system Musca domestica (houseflies - adults). Briefly: Contact test on houseflies - adults (MD), Cotton wool/sugar, mortality. As to conditions: 500 ppm, contact, read-out: MD grading of mortality. Summed up:
as §1

For assay [4], the system named is Diabrotica balteata (rootworm larvae). Briefly: Residual test on rootworm larvae (DB), Filter paper/maize seed, mortality. As to conditions: 48 h, 500 ppm, residual, read-out: DB grading of mortality. The gist of the method:
as §1

For assay [5], the system named is Blattella germanica (cockroach nymphs). Briefly: Residual test on cockroach nymphs (BG/R), Plastic pot, mortality. As to conditions: 72 h, 3 days, read-out: BG/R grading of mortality. As for the experimental part:
The activity of the Product was determined using a variety of insect pests. The Product was used in the form of liquid preparations containing 500, 250 or 100 parts per million (ppm) by weight of the Product. The preparations were made by dissolving the Product in acetone and diluting the solutions with water containing 0.01% by weight of a wetting agent sold under the trade name "LISSAPOL" NX until the liquid preparations contained the required concentration of the Product. "Lissapol" is a Registered Trade Mark.
The test procedure adopted with regard to each pest was basically the same and comprised supporting a number of the pests on a medium which was usually a host plant or a foodstuff on which the pests feed, and treating either or both the pests and the medium with the preparations. The mortality of the pests was then assessed at periods usually varying from one to three days after the treatment.
The results of the tests are given in Table III for each of the Products, at the rate in parts per million given in the second column as a grading of mortality designated as A, B or C wherein A indicates 80-100% mortality or knockdown, B indicates 50-79% mortality or knockdown and C indicates less than 50% mortality or knockdown.
BG/R Blattella germanica

The test system of a further assay is Myzus persicae (aphids). Description: Contact test on aphids (MP), Chinese Cabbage leaf, mortality. As to conditions: 72 h, 500 ppm, contact, 3 days, read-out: MP grading of mortality. The gist of the method: as §1
The subject of assay [6] is Tetranychus urticae (spider mites - ova). Description: Contact test on spider mites - ova (TUe), French bean leaf, mortality. To be noted: 144 h, 500 ppm, contact, 6 days, read-out: TUe grading of mortality. The gist of the method:
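Graded read-out: A 80-100%, B 50-79%, C below 50% mortality or knockdown, assessed usually 1-3 days post-treatment. Liquid preparations at 500, 250 or 100 ppm by weight, from acetone solution diluted in water with 0.01% wetting agent, applied to pests and/or their host plant or food medium.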

Assay [7] relates to Spodoptera exigua (lesser army worm - larvae). Briefly: Residual test on lesser army worm larvae (SP), Cotton leaf, mortality. As to conditions: 48 h, 500 ppm, residual, read-out: SP grading of mortality. Summed up:
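Product dissolved in acetone and diluted in water with 0.01% wetting agent to 500, 250 or 100 ppm; larvae and/or cotton leaf host treated. Mortality or knockdown scored one to three days later and graded A (80-100%), B (50-79%) or C (<50%).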

Assay [8] relates to Heliothis virescens (tobacco budworm - larvae). Description: Residual test on tobacco budworm larvae (HV), Cotton leaf, mortality. As to conditions: 48 h, read-out: HV grading of mortality. The gist of the method: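 Product in acetone diluted with water containing 0.01% Lissapol NX, at 500, 250 or 100 ppm; pests and/or host medium (here cotton leaf) treated. Mortality scored one to three days later, graded A (80-100%), B (50-79%), C (<50%).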

For assay [9], the system named is Musca domestica (houseflies - adults). Briefly: Knockdown test on houseflies - adults (MD/KD), Cotton wool/sugar. As to conditions: 500 ppm, 4 hours, read-out: MD/KD grading of knockdown. Summed up: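 Adult houseflies exposed to the compound at 500, 250 or 100 ppm in acetone/water with 0.01% wetting agent, on a cotton wool/sugar medium. Knockdown and mortality assessed, graded A (80-100%), B (50-79%) or C (<50%).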

Assay [10] has as its system Blattella germanica (cockroach nymphs). Briefly: Contact test on cockroach nymphs (BG/C), Plastic pot, mortality. To be noted: 48 h, 500 ppm, contact, 2 days, read-out: BG/C grading of mortality. The gist of the method: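 Cockroach nymphs and/or their medium were treated with aqueous preparations at 500, 250 or 100 ppm (acetone solution diluted in water with 0.01% Lissapol NX wetting agent). Mortality or knockdown was assessed typically 1–3 days later and graded A (80–100%), B (50–79%) or C (<50%).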

Where [11] appears, read: 72 h, * test duration of 3 days.
Setting [12] is: 24 h, ** test duration of 1 day.

Where two headings read alike, the source gives them in different places. A value given as a limit tells only on which side of the number the result lay.

On to `C=CCc1c(F)c(F)c(COC(=O)C(c2cnc(C)nc2)C(C)C)c(F)c1F` (racemic) [Compound 119], for which the mortality at 500 ppm (in assay [1]; in assay [2] (setting [11]); in assay [3] (setting [12]); in [4] (* test duration of 3 days); in assay [5]; with Myzus persicae (aphids)) was 80 to 100% each time. Moreover, the mortality at 500 ppm in assay [6] was less than 50%; in assay [7] (* test duration of 3 days), 80 to 100%; in assay [8], less than 50%. The pest or weed control at 500 ppm in [9] fell in the range of 80 to 100%.

Consider `CC(C)(C)c1ncc(C(C(=O)OCc2c(F)c(F)c(Cc3ccccc3)c(F)c2F)C(C)(C)C)cn1` (racemic) [Compound 17, 4-benzyl-2,3,5,6-tetrafluorobenzyl (RS)-2-[2-(1,1-dimethylethyl)pyrimidin-5-yl]-3,3-dimethylbutanoate], for which the mortality at 500 ppm was 50 to 79% in assay [1]; less than 50% in [2] (48 h, 2 days); less than 50% in [3] (72 h, 3 days); 80 to 100% in assay [4] (2 days); less than 50% in assay [5]; less than 50% with Myzus persicae (aphids). In addition, the mortality at 500 ppm in assay [6], in assay [7] (2 days) and in assay [8] was less than 50% in each case. The pest or weed control at 500 ppm in assay [9] is less than 50%.

For the molecule `COCc1c(F)c(F)c(COC(=O)C(c2cnc(C)nc2)C(C)C)c(F)c1F` (racemic) [Compound 214, 4-(methoxymethyl)-2,3,5,6-tetrafluoroenzyl (RS)-2-(2-methylpyrimidin-5-yl)-3-methylbutanoate], the mortality at 500 ppm was 80 to 100% in [1]; 80 to 100% in assay [2] (setting [11]); 50 to 79% in [3] (setting [12]); less than 50% in assay [4] (* test duration of 3 days); 80 to 100% in [5]; 80 to 100% with Myzus persicae (aphids). In addition, the mortality at 500 ppm in assay [6] is less than 50%; in [7] (* test duration of 3 days), 80 to 100%; in assay [8] it was less than 50%. The pest or weed control at 500 ppm in assay [9] was in the range of 80 to 100%.

For `Cc1c(F)c(F)c(COC(=O)C(c2cnc(C(C)(C)C)nc2)C(C)(C)C)c(F)c1F` (racemic) [Compound 4, 2,3,5,6-tetrafluoro-4-methylbenzyl (RS)-2-[2-(1,1-dimethylethyl)pyrimidin-5-yl]-3,3-dimethylbutanoate], the mortality at 500 ppm in assay [1] fell in the range of 80 to 100%; in [2] (setting [11]) it was 80 to 100%; in assay [3] (setting [12]), 80 to 100%; in assay [4] (* test duration of 3 days), 80 to 100%; in assay [5], 50 to 79%; with Myzus persicae (aphids), 80 to 100%. Besides, the mortality at 500 ppm was less than 50% in [6], 80 to 100% in assay [7] (* test duration of 3 days) and 80 to 100% in assay [8]. In addition, the pest or weed control at 500 ppm in [9] is 80 to 100%.

For `COCc1c(F)c(F)c(COC(=O)C(c2cnc(C(C)(C)C)nc2)C2CC2)c(OC)c1F` (racemic) [Compound 92, 3,5,6-trifluoro-2-methoxy-4-(methoxymethyl)benzyl (RS)-2-[2-(1,1-dimethylethyl)pyrimidin-5-yl]-2-cyclopropylacetate], the mortality at 500 ppm was 80 to 100% in assay [1]; 80 to 100% in assay [2] (setting [11]); 80 to 100% in assay [3] (setting [12]); less than 50% in assay [4] (* test duration of 3 days); less than 50% in assay [5]; 80 to 100% with Myzus persicae (aphids). The mortality at 500 ppm was less than 50% in assay [6], 80 to 100% in assay [7] (* test duration of 3 days) and 80 to 100% in assay [8]. For the same molecule, the pest or weed control at 500 ppm in assay [9] was 80 to 100%.

With `C#CCc1c(F)c(F)c(COC(=O)C(c2cnc(C(C)(C)C)nc2)C(C)(C)C)c(F)c1F` (racemic) [Compound 12, 2,3,5,6-tetrafluoro-4-(prop-2-yn-1-yl)benzyl (RS)-2-[2-(1,1-dimethylethyl)pyrimidin-5-yl]-3,3-dimethylbutanoate], the mortality at 500 ppm (in assay [1]; in assay [2] (setting [11]); in [3] (setting [12]); in [4] (* test duration of 3 days); in assay [5]; in the assay with Myzus persicae (aphids)) was 80 to 100% in each case. The mortality at 500 ppm in assay [6], in assay [7] (* test duration of 3 days) and in [8] was 80 to 100% in each case. In addition, the pest or weed control at 500 ppm in assay [9] was 80 to 100%.

Take `COCc1c(F)c(F)c(COC(=O)C(c2cnc(C(C)(C)C)nc2)C(C)(C)C)c(OC)c1F` (racemic) [Compound 16, 2,3,5-trifluoro-6-methoxy-4-(methoxymethyl)benzyl (RS)-2-[2-(1,1-dimethylethyl)pyrimidin-5-yl]-3,3-dimethylbutanoate]: the mortality at 500 ppm in [1] is less than 50%; in assay [3] (setting [12]) it was 80 to 100%; in assay [4] (* test duration of 3 days) it was less than 50%; in assay [5] it was 50 to 79%; with Myzus persicae (aphids) it was 80 to 100%; in assay [6] it was 80 to 100%. Also, the mortality at 500 ppm in assay [7] (* test duration of 3 days) and in assay [8] was 80 to 100% in each case. Moreover, the pest or weed control at 500 ppm in assay [9] lay within 80 to 100%.

For `CC(C)(C)c1ncc(C(C(=O)OCc2c(F)c(F)c(CN3CCCCC3)c(F)c2F)C(C)(C)C)cn1` (racemic) [Compound 177, 4-[(piperidin-1-yl)methyl]-2,3,5,6-tetrafluorobenzyl (RS)-2-(2-(1,1-dimethylethyl)pyrimidin-5-yl)-3,3-dimethylbutanoate], the mortality at 500 ppm is 80 to 100% in assay [1]; 80 to 100% in assay [2] (48 h, 2 days); less than 50% in assay [3] (72 h, 3 days); less than 50% in assay [4] (2 days); less than 50% in assay [10]; 80 to 100% with Myzus persicae (aphids). For the same molecule, the mortality at 500 ppm in [6] was less than 50%; in assay [7] (2 days) it was 80 to 100%; in assay [8] it was less than 50%. Further, in [9], the pest or weed control at 500 ppm was in the range of 80 to 100%.

For `CC(C)OC(=O)c1c(F)c(F)c(COC(=O)C(c2cnc(C(C)(C)C)nc2)C(C)(C)C)c(F)c1F` (racemic) [Compound 171, 4-[(prop-2-yl)oxycarbonyl]-2,3,5,6-tetrafluorobenzyl (RS)-2-[2-(1,1-dimethylethyl)pyrimidin-5-yl]-3,3-dimethylbutanoate], the mortality at 500 ppm in [1] was 80 to 100%; in [2] (48 h, 2 days) it was less than 50%; in assay [3] (72 h, 3 days) it was less than 50%; in assay [4] (2 days), less than 50%; in assay [10], less than 50%; with Myzus persicae (aphids), less than 50%. Moreover, the mortality at 500 ppm in [6], in assay [7] (2 days) and in assay [8] was less than 50% in each case. Moreover, the pest or weed control at 500 ppm in assay [9] was less than 50%.
